Assay results: patent US8163929B2, “Dihydropyridone amides as P2X7 modulators” (Roche Palo Alto LLC, priority 2008, dated 2012)

Molecular target: T1, P2X7 (UniProt Q99572)
T1 sequence (Q99572 1-595): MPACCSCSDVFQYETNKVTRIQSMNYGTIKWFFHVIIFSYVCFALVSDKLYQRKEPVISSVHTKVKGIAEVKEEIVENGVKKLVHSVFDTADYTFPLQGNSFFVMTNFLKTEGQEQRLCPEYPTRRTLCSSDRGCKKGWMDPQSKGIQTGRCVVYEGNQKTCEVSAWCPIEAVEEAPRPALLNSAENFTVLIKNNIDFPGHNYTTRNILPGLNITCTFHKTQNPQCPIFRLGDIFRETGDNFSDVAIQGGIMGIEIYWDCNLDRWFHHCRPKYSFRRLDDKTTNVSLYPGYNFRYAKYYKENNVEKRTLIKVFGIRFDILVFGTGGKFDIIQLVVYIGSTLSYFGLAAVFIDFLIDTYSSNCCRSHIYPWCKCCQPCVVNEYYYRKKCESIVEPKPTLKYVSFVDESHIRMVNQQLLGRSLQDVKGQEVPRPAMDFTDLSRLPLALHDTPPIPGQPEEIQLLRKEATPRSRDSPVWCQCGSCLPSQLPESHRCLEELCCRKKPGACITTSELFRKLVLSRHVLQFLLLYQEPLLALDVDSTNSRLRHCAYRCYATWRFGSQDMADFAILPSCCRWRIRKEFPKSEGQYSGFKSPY
Experiment: P2X7 activity of Table 1
Format: cell-based
Conditions: pIC50 values for P2X7
Summary of the method: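 FLIPR calcium flux with fluo-3 in 1321N1 cells expressing human P2X7 and HEK293 cells expressing rat P2X7, in HBSS with 2 mM CaCl2 and 2.5 mM probenecid. Antagonist pre-incubated 20 min at room temperature, then BzATP added (100 μM human, 5 μM rat). Peak response over 5 min normalised to 5 μM ionomycin.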

Structure (SMILES)	pIC50
Cc1ccc(-c2ccnn(CCO)c2=O)cc1NC(=O)C1=CN(C)C(=O)C[C@H]1c1cccc(F)c1 [Compound 93, (S)-4-(3-Fluoro-phenyl)-1-methyl-6-oxo-1,4,5,6-tetrahydro-pyridine-3-carboxylic acid {5-[2-(2-hydroxy-ethyl)-3-oxo-2,3-dihydro-pyridazin-4-yl]-2-methyl-phenyl}-amide]	7.5
Cc1ccc(-c2ccnn(CCO)c2=O)cc1NC(=O)C1=CN(C)C(=O)C[C@H]1c1ccc(F)cc1 [Compound 94, (S)-4-(4-Fluoro-phenyl)-1-methyl-6-oxo-1,4,5,6-tetrahydro-pyridine-3-carboxylic acid {5-[2-(2-hydroxy-ethyl)-3-oxo-2,3-dihydro-pyridazin-4-yl]-2-methyl-phenyl}-amide]	7.8
Cc1ccc(-c2cc(C)n(CCO)n2)cc1NC(=O)C1=CNC(=O)CC1c1cc(F)cc(F)c1 (stereo not drawn) [Compound 95, 4-(3,5-Difluoro-phenyl)-6-oxo-1,4,5,6-tetrahydro-pyridine-3-carboxylic acid {5-[1-(2-hydroxy-ethyl)-5-methyl-1H-pyrazol-3-yl]-2-methyl-phenyl}-amide]	7.85
Cc1ccc(-c2ccc(C)c(NC(=O)C3=CNC(=O)C[C@H]3c3cccc(F)c3)c2)nn1 [Compound 96, (S)-4-(3-Fluoro-phenyl)-6-oxo-1,4,5,6-tetrahydro-pyridine-3-carboxylic acid [2-methyl-5-(6-methyl-pyridazin-3-yl)-phenyl]-amide]	7.48
Cc1ccc(-c2ncccn2)cc1NC(=O)C1=CNC(=O)C[C@H]1c1cccc(F)c1 [Compound 97, (S)-4-(3-Fluoro-phenyl)-6-oxo-1,4,5,6-tetrahydro-pyridine-3-carboxylic acid (2-methyl-5-pyrimidin-2-yl-phenyl)-amide]	7.09
Cc1ccc(-c2ccc(=O)n(C)n2)cc1NC(=O)C1=CNC(=O)C[C@H]1c1ccc(F)cc1 [Compound 98, (S)-4-(4-Fluoro-phenyl)-6-oxo-1,4,5,6-tetrahydro-pyridine-3-carboxylic acid [2-methyl-5-(1-methyl-6-oxo-1,6-dihydro-pyridazin-3-yl)-phenyl]-amide]	6.52
Cc1ccc(-c2ccc(=O)[nH]n2)cc1NC(=O)C1=CNC(=O)C[C@H]1c1ccc(F)cc1 [Compound 99, (S)-4-(4-Fluoro-phenyl)-6-oxo-1,4,5,6-tetrahydro-pyridine-3-carboxylic acid [2-methyl-5-(6-oxo-1,6-dihydro-pyridazin-3-yl)-phenyl]-amide]	7.515
Cc1ccc(-n2ncc(=O)n(CCO)c2=O)cc1NC(=O)C1=CN(C)C(=O)C[C@H]1c1ccc(F)cc1 [Compound 100, (S)-4-(4-Fluoro-phenyl)-1-methyl-6-oxo-1,4,5,6-tetrahydro-pyridine-3-carboxylic acid {5-[4-(2-hydroxy-ethyl)-3,5-dioxo-4,5-dihydro-3H-[1,2,4]triazin-2-yl]-2-methyl-phenyl}-amide]	7.5
Cc1ccc(-n2ncc(=O)n(CCO)c2=O)cc1NC(=O)C1=CN(C)C(=O)C[C@H]1c1cccc(F)c1 [Compound 101, (S)-4-(3-Fluoro-phenyl)-1-methyl-6-oxo-1,4,5,6-tetrahydro-pyridine-3-carboxylic acid {5-[4-(2-hydroxy-ethyl)-3,5-dioxo-4,5-dihydro-3H-[1,2,4]triazin-2-yl]-2-methyl-phenyl}-amide]	7.57
Cc1ccc(-c2cc(C(F)(F)F)[nH]n2)cc1NC(=O)C1=CNC(=O)C[C@H]1c1ccc(F)cc1 [Compound 102, (S)-4-(4-Fluoro-phenyl)-6-oxo-1,4,5,6-tetrahydro-pyridine-3-carboxylic acid [2-methyl-5-(5-trifluoromethyl-1H-pyrazol-3-yl)-phenyl]-amide]	5.77
COC[C@@H](O)Cn1nc(-c2ccc(C)c(NC(=O)C3=CN(C)C(=O)C[C@H]3c3cccc(F)c3)c2)cc1C [Compound 103, (S)-4-(3-Fluoro-phenyl)-1-methyl-6-oxo-1,4,5,6-tetrahydro-pyridine-3-carboxylic acid {5-[1-((S)-2-hydroxy-3-methoxy-propyl)-5-methyl-1H-pyrazol-3-yl]-2-methyl-phenyl}-amide]	7.1
COC[C@H](O)Cn1nccc(-c2ccc(C)c(NC(=O)C3=CN(C)C(=O)C[C@H]3c3cccc(F)c3)c2)c1=O [Compound 104, (S)-4-(3-Fluoro-phenyl)-1-methyl-6-oxo-1,4,5,6-tetrahydro-pyridine-3-carboxylic acid {5-[2-((R)-2-hydroxy-3-methoxy-propyl)-3-oxo-2,3-dihydro-pyridazin-4-yl]-2-methyl-phenyl}-amide]	7.8
COC[C@H](O)Cn1nccc(-c2ccc(C)c(NC(=O)C3=CN(C)C(=O)C[C@H]3c3ccc(F)cc3)c2)c1=O [Compound 105, (S)-4-(4-Fluoro-phenyl)-1-methyl-6-oxo-1,4,5,6-tetrahydro-pyridine-3-carboxylic acid {5-[2-((R)-2-hydroxy-3-methoxy-propyl)-3-oxo-2,3-dihydro-pyridazin-4-yl]-2-methyl-phenyl}-amide]	7.57
COC[C@H](O)Cn1nccc(-c2ccc(C)c(NC(=O)C3=CNC(=O)C[C@H]3c3ccc(F)cc3)c2)c1=O [Compound 106, (S)-4-(4-Fluoro-phenyl)-6-oxo-1,4,5,6-tetrahydro-pyridine-3-carboxylic acid {5-[2-((R)-2-hydroxy-3-methoxy-propyl)-3-oxo-2,3-dihydro-pyridazin-4-yl]-2-methyl-phenyl}-amide]	7.885
Cc1ccc(-n2ncc(=O)[nH]c2=O)cc1NC(=O)C1=CN(C)C(=O)C[C@H]1c1ccc(F)cc1 [Compound 107, (S)-4-(4-Fluoro-phenyl)-1-methyl-6-oxo-1,4,5,6-tetrahydro-pyridine-3-carboxylic acid [5-(3,5-dioxo-4,5-dihydro-3H-[1,2,4]triazin-2-yl)-2-methyl-phenyl]-amide]	6.81
Cc1ccc(-n2ncc(=O)[nH]c2=O)cc1NC(=O)C1=CN(C)C(=O)C[C@H]1c1cccc(F)c1 [Compound 108, (S)-4-(3-Fluoro-phenyl)-1-methyl-6-oxo-1,4,5,6-tetrahydro-pyridine-3-carboxylic acid [5-(3,5-dioxo-4,5-dihydro-3H-[1,2,4]triazin-2-yl)-2-methyl-phenyl]-amide]	7.145
Cc1ccc(-c2ccnn(C)c2=O)cc1NC(=O)C1=CNC(=O)C[C@H]1c1cccc(F)c1 [Compound 109, (S)-4-(3-Fluoro-phenyl)-6-oxo-1,4,5,6-tetrahydro-pyridine-3-carboxylic acid [2-methyl-5-(2-methyl-3-oxo-2,3-dihydro-pyridazin-4-yl)-phenyl]-amide]	8.045
Cc1ccc(-n2ncccc2=O)cc1NC(=O)C1=CN(C)C(=O)C[C@H]1c1ccc(F)cc1 [Compound 110, (S)-4-(4-Fluoro-phenyl)-1-methyl-6-oxo-1,4,5,6-tetrahydro-pyridine-3-carboxylic acid [2-methyl-5-(6-oxo-6H-pyridazin-1-yl)-phenyl]-amide]	7.17
Cc1ccc(-c2cc(C(F)(F)F)n(CCO)n2)cc1NC(=O)C1=CN(C)C(=O)C[C@H]1c1cccc(F)c1 [Compound 111, (S)-4-(3-Fluoro-phenyl)-1-methyl-6-oxo-1,4,5,6-tetrahydro-pyridine-3-carboxylic acid {5-[1-(2-hydroxy-ethyl)-5-trifluoromethyl-1H-pyrazol-3-yl]-2-methyl-phenyl}-amide]	6.895
Cc1ccc(-c2ccn(CCO)n2)cc1NC(=O)C1=CN(C)C(=O)C[C@H]1c1cccc(F)c1 [Compound 112, (S)-4-(3-Fluoro-phenyl)-1-methyl-6-oxo-1,4,5,6-tetrahydro-pyridine-3-carboxylic acid {5-[1-(2-hydroxy-ethyl)-1H-pyrazol-3-yl]-2-methyl-phenyl}-amide]	7.645
Cc1cc(-c2ccc(Cl)c(NC(=O)C3=CN(C)C(=O)C[C@H]3c3ccc(F)cc3)c2)nn1CCO [Compound 115, (S)-4-(4-Fluoro-phenyl)-1-methyl-6-oxo-1,4,5,6-tetrahydro-pyridine-3-carboxylic acid {2-chloro-5-[1-(2-hydroxy-ethyl)-5-methyl-1H-pyrazol-3-yl]-phenyl}-amide]	7.04
Cc1ccc(-c2ccc[nH]c2=O)cc1NC(=O)C1=CN(C)C(=O)C[C@H]1c1ccc(F)cc1 [Compound 116, (S)-4-(4-Fluoro-phenyl)-1-methyl-6-oxo-1,4,5,6-tetrahydro-pyridine-3-carboxylic acid [2-methyl-5-(2-oxo-1,2-dihydro-pyridin-3-yl)-phenyl]-amide]	7.565
COc1ccc(-c2ccc(C)c(NC(=O)C3=CN(C)C(=O)C[C@H]3c3ccc(F)cc3)c2)nn1 [Compound 117, (S)-4-(4-Fluoro-phenyl)-1-methyl-6-oxo-1,4,5,6-tetrahydro-pyridine-3-carboxylic acid [5-(6-methoxy-pyridazin-3-yl)-2-methyl-phenyl]-amide]	7.22
Cc1ccc(-c2ccc(=O)[nH]n2)cc1NC(=O)C1=CN(C)C(=O)C[C@H]1c1ccc(F)cc1 [Compound 118, (S)-4-(4-Fluoro-phenyl)-1-methyl-6-oxo-1,4,5,6-tetrahydro-pyridine-3-carboxylic acid [2-methyl-5-(6-oxo-1,6-dihydro-pyridazin-3-yl)-phenyl]-amide]	6.585
